The structures appear in SMILES notation.

T1 sequence (Q06187 whole entry): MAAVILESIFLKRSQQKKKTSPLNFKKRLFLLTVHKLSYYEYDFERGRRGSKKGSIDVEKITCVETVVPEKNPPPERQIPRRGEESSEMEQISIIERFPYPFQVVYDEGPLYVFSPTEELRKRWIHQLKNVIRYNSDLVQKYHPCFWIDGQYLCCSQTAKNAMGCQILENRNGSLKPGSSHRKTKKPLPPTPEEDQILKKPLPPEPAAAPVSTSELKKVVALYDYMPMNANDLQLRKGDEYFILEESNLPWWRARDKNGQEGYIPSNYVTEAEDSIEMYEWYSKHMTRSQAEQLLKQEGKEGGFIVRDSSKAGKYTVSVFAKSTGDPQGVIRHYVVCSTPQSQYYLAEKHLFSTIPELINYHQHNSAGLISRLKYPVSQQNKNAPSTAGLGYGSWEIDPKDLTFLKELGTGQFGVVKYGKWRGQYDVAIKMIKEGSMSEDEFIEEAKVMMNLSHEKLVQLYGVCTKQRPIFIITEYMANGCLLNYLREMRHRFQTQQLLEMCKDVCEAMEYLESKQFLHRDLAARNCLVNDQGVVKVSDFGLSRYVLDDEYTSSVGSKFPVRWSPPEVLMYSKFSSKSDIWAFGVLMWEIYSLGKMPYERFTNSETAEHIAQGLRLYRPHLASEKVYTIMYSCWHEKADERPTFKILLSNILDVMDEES

This experiment has as its target T1, BTK enzyme (recombinant full-length BTK, hBTK) (Homo sapiens, UniProt Q06187).
T1 construct: recombinant protein from baculovirus-transfected Sf9 cells: full-length BTK, 6HIS-tag cleaved; 6HIS (cleaved yes); made in house; host or cells: baculovirus-transfected Sf9 cells
The experiment in a line: Btk enzyme activity assay, LANCE TR-FRET. Particulars: 50 pM hBTK, 2 μM biotin-A5-peptide, 25 μM ATP; 60 minute compound & enzyme incubation; 120 minutes reaction; read-out: BTK binding potency IC50. It is filed as biochemical. How it is done:
Btk Enzyme Activity Assay Methods
BTK enzymatic activity was determined with the LANCE (Lanthanide Chelate Excite) TR-FRET (lime-resolved fluorescence resonance energy transfer) assay. […] Phosphorylation reactions were allowed to proceed for 120 minutes. […] After 60 minutes incubation with detection reagents, reaction plates were read on a PerkinElmer EnVision plate reader using standard TR-FRET protocol. Briefly, excitation of donor molecules (Eu-chelate:anti-phospho-antibody) with a laser light source at 337 nm produces energy that can be transferred to Dylight-650 acceptor molecules if this donor:acceptor pair is within close proximity. Fluorescence intensity at both 665 nm (acceptor) and 615 nm (donor) are measured and a TR-FRET ratio calculated for each well (acceptor intensity/donor intensity). IC50 values were determined by 4 parameter robust fit of TR-FRET ratio values vs. (Log10) compound concentrations.
As to `CC(C)(C)c1ccc(C(=O)N2CCCC3(CCCCN3c3ncc(C(N)=O)c4[nH]c5ccccc5c34)C2)cc1` (stereo not drawn) [Example 25, 1-{8-[(4-tert-butylphenyl)carbonyl]-1,8-diazaspiro[5.5]undec-1-yl}-5H-pyrido[4,3-b]indole-4-carboxamide], the IC50 (as a rule, the concentration that gives 50% inhibition) came to 536 nM.
The value for `NC(=O)c1cnc(N2CCC[C@@]3(CCNC3=O)C2)c2c1[nH]c1cc(-c3cc[nH]c(=O)c3)ccc12` [Example 70, 1-[(5R)-1-oxo-2,7-diazaspiro[4.5]dec-7-yl]-7-(2-oxo-1,2-dihydropyridin-4-yl)-5H-pyrido[4,3-b]indole-4-carboxamide] was 5.4 nM; that for `NC(=O)c1cnc(N2CCC[C@]3(C2)C(=O)NC[C@@H]3O)c2c1[nH]c1ccccc12` [Example 24, 1-[(4R,5R)-4-hydroxy-1-oxo-2,7-diazaspiro[4.5]dec-7-yl]-5H-pyrido[4,3-b]indole-4-carboxamide] was 9 nM; that for `CC(=O)N1CCC(c2ccc3c(c2)[nH]c2c(C(N)=O)cnc(N4CCCC5(CCNC5=O)C4)c23)CC1` (stereo not drawn) [Example 58, 7-(1-acetylpiperidin-4-yl)-1-(1-oxo-2,7-diazaspiro[4.5]dec-7-yl)-5H-pyrido[4,3-b]indole-4-carboxamide] was 1.4 nM.
Next, `CS(=O)(=O)N1CCC(c2ccc3c(c2)[nH]c2c(C(N)=O)cnc(N4CCCC5(CCNC5=O)C4)c23)CC1` (stereo not drawn) [Example 57, 7-[1-(methylsulfonyl)piperidin-4-yl]-1-(1-oxo-2,7-diazaspiro[4.5]dec-7-yl)-5H-pyrido[4,3-b]indole-4-carboxamide]: 2.1 nM; `CC(=O)N1CC2(CCN(c3ncc(C(N)=O)c4[nH]c5ccccc5c34)CC2)C1` [Example 20, 1-(2-acetyl-2,7-diazaspiro[3.5]non-7-yl)-5H-pyrido[4,3-b]indole-4-carboxamide]: 58.6 nM; `NC(=O)c1cnc(N2CCCC3(C2)NCCNC3=O)c2c1[nH]c1ccccc12` (stereo not drawn) [Example 87, 1-(5-oxo-1,4,8-triazaspiro[5.5]undecan-8-yl)-5H-pyrido[4,3-b]indole-4-carboxamide]: 82.8 nM.
The value for `CN1CC[C@@]2(CCCN(c3ncc(C(N)=O)c4[nH]c5cc(-c6cccc(C(O)C(F)(F)F)c6)ccc5c34)C2)C1=O` (stereo partly drawn) [Example 79, 1-[(5R)-2-methyl-1-oxo-2,7-diazaspiro[4.5]dec-7-yl]-7-[3-(2,2,2-trifluoro-1-hydroxyethyl)phenyl]-5H-pyrido[4,3-b]indole-4-carboxamide] was 63 nM.
Regarding `CN1CCCC2(CCCN(c3ncc(C(N)=O)c4[nH]c5ccccc5c34)C2)C1=O` (stereo not drawn) [Example 35, 1-(8-methyl-7-oxo-2,8-diazaspiro[5.5]undec-2-yl)-5H-pyrido[4,3-b]indole-4-carboxamide], the IC50 was determined as 55.2 nM.
Next, `NC(=O)c1cnc(N2CC3(CCNC3)C2)c2c1[nH]c1ccccc12` [Example 26, 1-(2,6-diazaspiro[3.4]oct-2-yl)-5H-pyrido[4,3-b]indole-4-carboxamide]: 160 nM; `CC(C)(C)c1ccc(N2CCC3(CCCN(c4ncc(C(N)=O)c5[nH]c6ccccc6c45)C3)C2=O)cc1` (stereo not drawn) [Example 36, 1-[2-(4-tert-butylphenyl)-1-oxo-2,7-diazaspiro[4.5]dec-7-yl]-5H-pyrido[4,3-b]indole-4-carboxamide]: 9530 nM.
Next, `CNC(=O)N1CCC(c2ccc3c(c2)[nH]c2c(C(N)=O)cnc(N4CCCC5(CCNC5=O)C4)c23)CC1` (stereo not drawn) [Example 53, 7-[1-(methylcarbamoyl)piperidin-4-yl]-1-(1-oxo-2,7-diazaspiro[4.5]dec-7-yl)-5H-pyrido[4,3-b]indole-4-carboxamide]: 1.4 nM.
Next, `NC(=O)c1cnc(N2CCC[C@@]3(CCNC3=O)C2)c2c1[nH]c1cc(C3CCC(=O)NC3)ccc12` (stereo partly drawn) [Example 73, 1-[(5R)-1-oxo-2,7-diazaspiro[4.5]dec-7-yl]-7-(6-oxopiperidin-3-yl)-5H-pyrido[4,3-b]indole-4-carboxamide]: 0.74 nM; `CN1CC[C@@]2(CCCN(c3ncc(C(N)=O)c4[nH]c5cc(C6CCN(CC(C)(C)O)CC6)ccc5c34)C2)C1=O` [Example 77, 7-[1-(2-hydroxy-2-methylpropyl)piperidin-4-yl]-1-[(5R)-2-methyl-1-oxo-2,7-diazaspiro[4.5]dec-7-yl]-5H-pyrido[4,3-b]indole-4-carboxamide]: 0.55 nM.
For `CC(C)(C)OC(=O)N1CCC2(CCN(c3ncc(C(N)=O)c4[nH]c5ccccc5c34)CC2)C1` [Example 13, tert-butyl 8-(4-carbamoyl-5H-pyrido[4,3-b]indol-1-yl)-2,8-diazaspiro[4.5]decane-2-carboxylate], the IC50 amounted to 163 nM.
Next, `CN1CCC(c2ccc3c(c2)[nH]c2c(C(N)=O)cnc(N4CCCC5(CCNC5=O)C4)c23)CC1` (stereo not drawn) [Example 55, 7-(1-methylpiperidin-4-yl)-1-(1-oxo-2,7-diazaspiro[4.5]dec-7-yl)-5H-pyrido[4,3-b]indole-4-carboxamide]: 1.3 nM; `CC(C)(C)OC(=O)N1CCC2(C1)CN(c1ncc(C(N)=O)c3[nH]c4ccccc4c13)C2` [Example 21, tert-butyl 2-(4-carbamoyl-5H-pyrido[4,3-b]indol-1-yl)-2,6-diazaspiro[3.4]octane-6-carboxylate]: 435 nM; `CCN1CCC(c2ccc3[nH]c4c(C(N)=O)cnc(N5CCCC6(CCNC6=O)C5)c4c3c2)CC1` (stereo not drawn) [Example 49, 8-(1-ethylpiperidin-4-yl)-1-(1-oxo-2,7-diazaspiro[4.5]dec-7-yl)-5H-pyrido[4,3-b]indole-4-carboxamide]: 87.3 nM.
The value for `CC(C)(O)CN1CCC(c2ccc3c(c2)[nH]c2c(C(N)=O)cnc(N4CCC[C@@]5(CCNC5=O)C4)c23)CC1` [Example 72, 7-[1-(2-hydroxy-2-methylpropyl)piperidin-4-yl]-1-[(5R)-1-oxo-2,7-diazaspiro[4.5]dec-7-yl]-5H-pyrido[4,3-b]indole-4-carboxamide] was 0.63 nM.
Next, `NC(=O)c1cnc(N2CCC3(CC2)CNC(=O)C3)c2c1[nH]c1ccccc12` [Example 10, 1-(3-oxo-2,8-diazaspiro[4.5]dec-8-yl)-5H-pyrido[4,3-b]indole-4-carboxamide]: 19.4 nM; `CC(C)c1ccc(N2CCCC3(CCCN(c4ncc(C(N)=O)c5[nH]c6ccccc6c45)C3)C2=O)cc1` (stereo not drawn) [Example 5, 1-{8-[4-(1-methylethyl)phenyl]-7-oxo-2,8-diazaspiro[5.5]undec-2-yl}-5H-pyrido[4,3-b]indole-4-carboxamide]: 492 nM.
For the molecule `COC(=O)c1ccc2c(c1)[nH]c1c(C(N)=O)cnc(N3CCCC4(CCNC4=O)C3)c12` (stereo not drawn) [Example 83, Methyl 4-carbamoyl-1-(1-oxo-2,7-diazaspiro[4.5]decan-7-yl)-5H-pyrido[4,3-b]indole-7-carboxylate], the IC50 is 57.2 nM.
Next, `NC(=O)c1cnc(N2CCCC3(C2)OCCN(c2ccc(F)cc2)C3=O)c2c1[nH]c1ccccc12` (stereo not drawn) [Example 3, 1-(4-(4-fluorophenyl)-5-oxo-1-oxa-4,8-diazaspiro[5.5]undecan-8-yl)-5H-pyrido[4,3-b]indole-4-carboxamide]: 109 nM; `CC(C)(C)OC(=O)N1CCC(c2ccc3c(c2)[nH]c2c(C(N)=O)cnc(N4CCCC5(CCNC5=O)C4)c23)CC1` (stereo not drawn) [Example 43, tert-butyl 4-[4-carbamoyl-1-(1-oxo-2,7-diazaspiro[4.5]dec-7-yl)-5H-pyrido[4,3-b]indol-7-yl]piperidine-1-carboxylate]: 7.4 nM.

(Values after US20180141962A1, “AZACARBAZOLE BTK INHIBITORS” (MERCK SHARP & DOHME CORP., priority 2015, published 2018).)
